Source: US4224342A, “Guanidinobenzoic acid compounds and process for preparing the same” (Ono Pharmaceutical Co., Ltd., priority 1977, dated 1980)

Assays:
Acute toxicity in mice = details: mouse, in vivo, route not given
Acute toxicity in rats = details: rat, in vivo, route and LD50 not given
trypsin = target: T1, trypsin (Bos taurus, UniProt P00760); assay: In vitro inhibition of trypsin hydrolysis of p-tosylarginine methyl ester; type: biochemical; details: trypsin 0.5 μg, p-tosylarginine methyl ester 20 mM, Tris-HCl pH 8.5, 37° C., 30 minutes; read-out: 50% Inhibition Concentration, Anti-Trypsin
T1 sequence (P00760 24-246): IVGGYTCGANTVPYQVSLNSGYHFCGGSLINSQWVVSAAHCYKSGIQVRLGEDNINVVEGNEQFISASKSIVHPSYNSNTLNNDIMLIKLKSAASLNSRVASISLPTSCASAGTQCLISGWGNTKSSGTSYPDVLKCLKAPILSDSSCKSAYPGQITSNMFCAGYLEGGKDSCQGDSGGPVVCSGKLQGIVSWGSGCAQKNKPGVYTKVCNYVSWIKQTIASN

plasmin = target: T2, plasmin (Homo sapiens, UniProt P00747); assay: In vitro inhibition of plasmin (human euglobulin, streptokinase, fibrinogen); type: biochemical; details: fibrinogen 4%, borate saline pH 7.4, 37° C., 30 minutes, read-out: 50% Inhibition Concentration, Anti-Plasmin
T2 construct: from tissue; host or cells: human euglobulin (blood plasma fraction), with streptokinase added
T2 sequence (P00747 581-810 limits assumed): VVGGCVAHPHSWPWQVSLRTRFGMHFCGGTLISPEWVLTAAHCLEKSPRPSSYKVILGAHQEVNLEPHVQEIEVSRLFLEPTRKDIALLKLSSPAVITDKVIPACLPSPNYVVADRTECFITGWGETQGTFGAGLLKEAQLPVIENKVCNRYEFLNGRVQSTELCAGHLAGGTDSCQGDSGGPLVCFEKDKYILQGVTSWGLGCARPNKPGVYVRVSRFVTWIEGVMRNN
T2 sequence (P00747 97-580 partner limits assumed): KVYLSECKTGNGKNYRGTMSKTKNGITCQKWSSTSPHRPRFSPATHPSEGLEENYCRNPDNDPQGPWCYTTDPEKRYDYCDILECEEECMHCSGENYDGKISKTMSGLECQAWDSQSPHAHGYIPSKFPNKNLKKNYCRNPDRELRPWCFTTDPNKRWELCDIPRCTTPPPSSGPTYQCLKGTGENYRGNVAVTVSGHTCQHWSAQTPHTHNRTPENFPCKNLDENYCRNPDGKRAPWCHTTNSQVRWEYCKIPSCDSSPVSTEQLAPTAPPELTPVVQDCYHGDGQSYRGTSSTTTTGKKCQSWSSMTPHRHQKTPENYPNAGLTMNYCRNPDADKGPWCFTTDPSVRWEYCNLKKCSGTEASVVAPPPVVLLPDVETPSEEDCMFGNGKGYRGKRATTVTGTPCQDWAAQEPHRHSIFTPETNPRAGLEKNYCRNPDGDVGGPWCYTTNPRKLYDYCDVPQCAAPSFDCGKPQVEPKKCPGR
Protocol: 0.1 ml of human euglobulin (10 fold dilution), 0.1 ml of streptokinase (2000 unit/ml), 0.4 ml of fibrinogen (4% solution), 0.3 ml of a 0.1 M borate saline buffer solution (pH 7.4) and 0.1 ml of a solution of each of the following compounds represented by the formula (I) at various concentrations was allowed to react at a temperature of 37° C. for 30 minutes.

Row | SMILES | LD50 (Acute toxicity in mice) | LD50 (Acute toxicity in rats) | IC50 (trypsin) | IC50 (plasmin)
1 | CS(=O)(=O)O.N=C(N)Nc1ccc(C(=O)Oc2ccc(CC(=O)O)cc2)cc1 [4-(4-guanidinobenzoyloxy)phenylacetic acid mesylate] | 4500 mg/kg | 4400 mg/kg |  | 
2 | N=C(N)Nc1ccc(C(=O)Oc2ccc(CC(=O)O)cc2)cc1 [P-(p-Guanidinobenzoyloxy)phenylacetic Acid] |  |  | 29 nM | 250 nM
3 | COC(=O)Cc1ccc(OC(=O)c2ccc(NC(=N)N)cc2)cc1 [methyl p-(p-guanidinobenzoyloxy)phenyl acetate] |  |  | 9 nM | 220 nM
